The supplement of paper PMC10307832

What was measured:
Test in all cases: relative viability (nuclei count vs DMSO), 5 days (fraction); higher = more cells survive
[1] = compound: COC1=CC=C(C=C1)CN2C=CC3=C2C=C(C=C3)C(=O)NO + Cc1nc(NC(=O)N2CCC[C@H]2C(N)=O)sc1-c1ccnc(C(C)(C)C(F)(F)F)c1 [Alpelisib] (partner 2 µM)
In short: (§1)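 Relative viability divides the nuclei count in treated wells by that in vehicle wells. Lung cancer cell lines were seeded in 1536-well plates, dosed by pin tool the next day, and fixed and stained after 5 days in one step with final 0.05% Triton X-100, 1% formaldehyde and 1 ug/ml Hoechst. Dosing was a single drug or a fixed anchor-drug dose plus five library-drug doses (not always all listed) in √10 steps, and values are medians of duplicate plates imaged at 4×.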

[2] = compound: C[C@]1(c2nc3c(C(N)=O)cccc3[nH]2)CCCN1 [Veliparib] + C[C@@H](Oc1cc(-c2cnn(C3CCNCC3)c2)cnc1N)c1c(Cl)ccc(F)c1Cl [Crizotinib] (partner 1 µM)
In short: as §1

[3] = compound: C[C@]1(c2nc3c(C(N)=O)cccc3[nH]2)CCCN1 [Veliparib] + COc1cc2c(Oc3ccc(NC(=O)C4(C(=O)Nc5ccc(F)cc5)CC4)cc3F)ccnc2cc1OCCCN1CCOCC1 [Foretinib] (partner 0.25 µM)
In short: as §1

[4] = compound: COC1=CC=C(C=C1)CN2C=CC3=C2C=C(C=C3)C(=O)NO + Cc1nc(Nc2ncc(C(=O)Nc3c(C)cccc3Cl)s2)cc(N2CCN(CCO)CC2)n1 [Dasatinib] (partner 0.075 µM)
In short: as §1

Row | Cell Line | relative viability ([1]; first compound 0.08 µM) | relative viability ([1]; first compound 0.253 µM) | relative viability ([1]; first compound 0.8 µM) | relative viability ([1]; first compound 2.53 µM) | relative viability ([1]; first compound 8 µM) | relative viability ([2]; first compound 0.02 µM) | relative viability ([2]; first compound 0.06325 µM) | relative viability ([2]; first compound 0.2 µM) | relative viability ([2]; first compound 0.6325 µM) | relative viability ([2]; first compound 2 µM) | relative viability ([3]; first compound 0.2 µM) | relative viability ([3]; first compound 0.6325 µM) | relative viability ([3]; first compound 2 µM) | relative viability ([4]; first compound 0.08 µM) | relative viability ([4]; first compound 0.253 µM) | relative viability ([4]; first compound 0.8 µM) | relative viability ([4]; first compound 2.53 µM) | relative viability ([4]; first compound 8 µM) | relative viability ([3]; first compound 0.02 µM) | relative viability ([3]; first compound 0.06325 µM)
1 | 201T | 0.948 | 1.08 | 1.07 | 1.03 | 1 | 1.03 | 0.978 | 0.964 | 0.992 | 0.997 | 1.2 | 1.03 | 1.14 | 0.625 | 0.662 | 0.607 | 0.573 | 0.545 | – | –
2 | A549 | 0.643 | 0.812 | 0.743 | 0.749 | 0.58 | 0.768 | 0.699 | 0.792 | 0.61 | 0.891 | 0.962 | 0.807 | 0.963 | – | – | – | – | – | 1.07 | 0.878
3 | A-427 | – | 1.15 | 1.13 | 1.15 | 1.06 | 0.884 | 0.837 | 0.864 | 0.83 | 0.836 | 0.991 | 0.981 | 1.11 | – | 0.75 | 0.769 | 0.669 | 0.503 | – | 0.936
4 | ABC-1 | – | 1.37 | 0.928 | 1 | 1.17 | – | 0.987 | 0.846 | 0.953 | 0.962 | 1.12 | 0.961 | 1.15 | – | 0.566 | 0.589 | 0.676 | 0.488 | – | 0.858
5 | BEN | 0.972 | 1.07 | 1.06 | 0.967 | 0.929 | 0.735 | 0.97 | 1.01 | 0.783 | 0.884 | 0.724 | 0.656 | 0.569 | 0.305 | 0.264 | 0.297 | 0.347 | 0.317 | 0.413 | 0.482
6 | CAL-12T | 1.22 | 1.31 | 1.19 | 1.19 | 1.24 | 0.702 | 0.542 | 0.589 | 0.616 | 0.645 | 1.15 | 1.09 | 1.29 | 0.426 | 0.613 | 0.478 | 0.414 | 0.408 | 1.2 | 1.04
7 | COR-L23 | 0.493 | 0.897 | 0.793 | 0.892 | 0.551 | 0.637 | 0.605 | 0.718 | 0.584 | 0.651 | 0.956 | 0.962 | 0.866 | 0.388 | 0.463 | 0.556 | 0.524 | 0.427 | 0.958 | 0.987
8 | COR-L 105 | – | 0.93 | 1.04 | 0.942 | 0.929 | 0.881 | 0.583 | 0.921 | 0.786 | 0.696 | 1.1 | 1.07 | 0.943 | 0.287 | 0.32 | 0.35 | 0.323 | 0.237 | 1.17 | 1
9 | Calu-6 | 0.859 | 0.881 | 0.897 | 1.02 | 0.815 | 0.817 | 0.735 | 0.882 | 0.691 | 0.796 | 0.852 | 0.84 | 0.969 | – | – | – | – | – | 0.967 | 0.82
10 | ChaGo-K-1 | – | – | – | – | – | – | 1.05 | 1.08 | 1.06 | 1.09 | 0.845 | 0.784 | 0.923 | – | 0.589 | 0.631 | 0.584 | 0.486 | 0.874 | 0.873
11 | EBC-1 | 0.817 | 0.842 | 0.848 | 0.815 | 0.737 | 0.194 | 0.231 | 0.213 | 0.186 | 0.233 | 0.12 | 0.12 | 0.108 | – | – | – | – | – | 0.0919 | 0.11
12 | EKVX | 0.749 | 0.856 | 0.878 | 0.91 | 0.897 | 0.65 | 0.744 | 1.04 | 0.977 | 0.913 | 0.728 | 0.834 | 0.533 | 0.552 | 0.576 | 0.592 | 0.709 | 0.568 | 0.395 | 0.386
13 | EMC-BAC-2 | 0.633 | 0.749 | 0.799 | 0.77 | 0.71 | 0.771 | 0.649 | 0.754 | 0.737 | 0.779 | 1.11 | 1.01 | 1.02 | 0.324 | 0.333 | 0.347 | 0.357 | 0.298 | 0.999 | 0.911
14 | EPLC-272H | 0.875 | 0.976 | 0.985 | 0.864 | 0.875 | – | 0.798 | 0.855 | 0.941 | 0.904 | 0.677 | 0.659 | 0.878 | 0.36 | – | 0.434 | 0.389 | 0.199 | 0.743 | 0.609
15 | H3255 | 0.629 | 0.722 | 0.679 | 0.717 | 0.621 | 0.898 | 0.904 | 0.814 | 0.829 | 0.969 | 0.811 | 0.78 | 0.795 | 0.41 | 0.417 | 0.348 | 0.389 | 0.276 | 0.739 | 0.462
16 | HARA | 0.149 | 0.851 | 0.765 | 0.917 | 0.693 | 1.03 | 0.996 | 0.954 | 0.848 | 1.06 | 0.866 | 0.851 | 0.828 | – | 0.284 | 0.256 | 0.177 | 0.189 | 0.898 | 1.06
17 | HCC-15 | 0.74 | 0.989 | 0.898 | 0.93 | 0.853 | 0.803 | 0.86 | 0.847 | 0.752 | 0.825 | 1.05 | 1.05 | 1.06 | 0.433 | 0.675 | 0.65 | 0.626 | 0.586 | – | 1.01
18 | HCC-44 | 0.732 | 0.901 | 0.786 | 0.823 | 0.778 | 0.834 | 0.708 | 0.85 | 0.74 | 0.835 | – | – | – | – | – | – | – | – | – | –
